A value given as a limit tells only on which side of the number the result lay.

The source of these data is US20230312542A1, “HYDROXYPYRROLIDINE DERIVATIVE AND MEDICINAL APPLICATION THEREOF” (MITSUBISHI TANABE PHARMA CORPORATION, priority 2020, published 2023).

Chain of VHL (co-expressed with Elongin B and Elongin C) (P40337 whole entry, looked up): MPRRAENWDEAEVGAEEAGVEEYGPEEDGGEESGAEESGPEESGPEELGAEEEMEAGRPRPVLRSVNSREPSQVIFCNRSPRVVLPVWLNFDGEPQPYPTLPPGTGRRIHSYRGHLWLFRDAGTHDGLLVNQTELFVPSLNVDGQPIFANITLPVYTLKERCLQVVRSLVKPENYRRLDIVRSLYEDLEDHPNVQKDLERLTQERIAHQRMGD
Chain of VHL (co-expressed with Elongin B and Elongin C) (Q15370 whole entry partner, looked up): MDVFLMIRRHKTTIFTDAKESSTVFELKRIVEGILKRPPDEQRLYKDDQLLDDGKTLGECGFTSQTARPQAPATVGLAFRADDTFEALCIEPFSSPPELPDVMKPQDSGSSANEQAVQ
Chain of VHL (co-expressed with Elongin B and Elongin C) (Q15369 whole entry partner, looked up): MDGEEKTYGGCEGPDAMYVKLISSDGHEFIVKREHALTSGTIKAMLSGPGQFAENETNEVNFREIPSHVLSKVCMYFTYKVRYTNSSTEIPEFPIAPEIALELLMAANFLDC

This test addresses VHL (co-expressed with Elongin B and Elongin C) (Homo sapiens (Human), UniProt P40337). The experiment in a line: Measurement of intermolecular interactions using surface plasmon resonance (Biacore T200), Kd value for VHL. Type of test: binding. Particulars: SPR, immobilized VHL, 25° C.; read-out: Kd.
The term Kd denotes the free concentration of one partner at which half of the binding sites on the other are occupied at equilibrium, for simple one-to-one binding. For the compound `COc1cc(C(C(=O)N2C[C@H](O)C[C@H]2c2nccn2Cc2cccc(Oc3ccccc3)c2)C(C)C)on1` (stereo partly drawn) [Example 65, 1-[(2S,4R)-4-hydroxy-2-[1-[(3-phenoxyphenyl)methyl]imidazol-2-yl]pyrrolidin-1-yl]-2-(3-methoxy-1,2-oxazol-5-yl)-3-methylbutan-1-one], the Kd was 10 to 50 µM. In the case of `COc1cc(C(C(=O)N2C[C@H](O)C[C@H]2c2nccn2Cc2ccnc(-c3ccc(C(F)(F)F)cc3)c2)C(C)C)on1` (stereo partly drawn) [Example 102, 1-[(2S,4R)-4-hydroxy-2-[1-[[2-[4-(trifluoromethyl)phenyl]-4-pyridyl]methyl]imidazol-2-yl]pyrrolidin-1-yl]-2-(3-methoxyisoxazol-5-yl)-3-methylbutan-1-one] it was 10 to 50 µM. In the case of `COc1ccc(-c2cnc([C@@H]3C[C@@H](O)CN3C(=O)C(c3cc(OC)no3)C(C)C)[nH]2)cc1` (stereo partly drawn) [Example 78, 1-[(2S,4R)-4-hydroxy-2-[5-(4-methoxyphenyl)-1H-imidazol-2-yl]pyrrolidin-1-yl]-2-(3-methoxy-1,2-oxazol-5-yl)-3-methylbutan-1-one] it was 1 to 10 µM. As to `COc1cc(C(C(=O)N2C[C@H](O)C[C@H]2c2ncc[nH]2)C(C)C)on1` (stereo partly drawn) [Example 112, 1-[(2S,4R)-4-hydroxy-2-(1H-imidazol-2-yl)pyrrolidin-1-yl]-2-(3-methoxyisoxazol-5-yl)-3-methylbutan-1-one], the Kd was in the range of 1 to 10 µM. In the case of `COc1cc(C(C(=O)N2C[C@H](O)C[C@H]2c2nc(C(=O)N3CCC(OCc4ccccc4)CC3)c[nH]2)C(C)C)on1` (stereo partly drawn) [Example 141, 1-[(2S,4R)-2-[4-(4-benzyloxypiperidine-1-carbonyl)-1H-imidazol-2-yl]-4-hydroxypyrrolidin-1-yl]-2-(3-methoxyisoxazol-5-yl)-3-methylbutan-1-one] it was 1 to 10 µM; in that of `CNC(=O)c1ccc(-c2cnc([C@@H]3C[C@@H](O)CN3C(=O)C(c3cc(OC)no3)C(C)C)[nH]2)cc1` (stereo partly drawn) [Example 97, 4-[2-[(2S,4R)-4-hydroxy-1-[2-(3-methoxy-1,2-oxazol-5-yl)-3-methylbutanoyl]pyrrolidin-2-yl]-1H-imidazol-5-yl]-N-methylbenzamide], 1 to 10 µM. `COc1cc(C(C(=O)N2C[C@H](O)C[C@H]2c2nc(C(=O)N3CCC(c4ccncc4)CC3)c[nH]2)C(C)C)on1` (stereo partly drawn) [Example 139, 1-[(2S,4R)-4-hydroxy-2-[4-[4-(4-pyridyl)piperidine-1-carbonyl]-1H-imidazol-2-yl]pyrrolidin-1-yl]-2-(3-methoxyisoxazol-5-yl)-3-methylbutan-1-one]: the Kd is 1 to 10 µM. Take `CC(=O)N[C@H](C(=O)N1C[C@H](O)C[C@H]1c1nc(C(=O)N(C)Cc2cccnc2)c[nH]1)C(C)(C)C` [Example 53, 2-[(2S,4R)-1-[(2S)-2-acetamido-3,3-dimethylbutanoyl]-4-hydroxypyrrolidin-2-yl]-N-methyl-N-(pyridin-3-ylmethyl)-1H-imidazole-4-carboxamide]: the Kd was in the range of 1 to 10 µM.

As to `COc1cc(C(C(=O)N2C[C@H](O)C[C@H]2c2nc(C(=O)N(C)Cc3ccc(-c4ccc(C)nc4)cc3)c[nH]2)C(C)C)on1` (stereo partly drawn) [Example 154, 2-[(2S,4R)-4-hydroxy-1-[2-(3-methoxyisoxazol-5-yl)-3-methylbutanoyl]pyrrolidin-2-yl]-N-methyl-N-[[4-(6-methyl-3-pyridyl)phenyl]methyl]-1H-imidazole-4-carboxamide], the Kd was less than 1 µM. As to `COc1cc(C(C(=O)N2C[C@H](O)C[C@H]2c2nc(C(=O)N(Cc3ccc(-c4scnc4C)cc3)CC(F)(F)F)c[nH]2)C(C)C)on1` (stereo partly drawn) [Example 40, 2-[(2S,4R)-4-hydroxy-1-[2-(3-methoxy-1,2-oxazol-5-yl)-3-methylbutanoyl]pyrrolidin-2-yl]-N-[[4-(4-methyl-1,3-thiazol-5-yl)phenyl]methyl]-N-(22,2-trifluoroethyl)-1H-imidazole-4-carboxamide], the Kd lay within 1 to 10 µM.

For the compound `COc1cc(C(C(=O)N2C[C@H](O)C[C@H]2c2nc(C(=O)N3CCC(c4ccccc4)C3)c[nH]2)C(C)C)on1` (stereo partly drawn) [Example 111, 1-[(2S,4R)-4-hydroxy-2-[4-(3-phenylpyrrolidine-1-carbonyl)-1H-imidazol-2-yl]pyrrolidin-1-yl]-2-(3-methoxyisoxazol-5-yl)-3-methylbutan-1-one], the Kd is less than 1 µM.
